Our source for the melting point values is a melting point compilation (Tetko et al.; mined from patent text by program, amines drawn as free bases though some values may be those of a salt).

With `CC(C)(C)OC(=O)c1ccc(C=Cc2cnc(N)c(C#N)c2)cc1`, the melting point was in the range of 190 to 195 °C. For the molecule `CCC1CCC(=O)C=C1c1ccc(OCC(=O)OC(C)(C)C(=O)O)c(Cl)c1Cl` (stereo not given), the melting point lay within 167 to 168 °C. The same measure for `O=C(NC1CN(Cc2ccccc2)CCN(Cc2ccccc2)C1)c1n[nH]c2ccccc12`: 115 to 116 °C. The same measure for `O=C(NCCNC(c1ccccc1)(c1ccccc1)c1ccccc1)C(CCO)NC(c1ccccc1)(c1ccccc1)c1ccccc1` (stereo not given): 71 to 72 °C; for `CCCCSc1c(N)cc(C(=O)O)cc1S(N)(=O)=O`: 223 to 224 °C; for `Cc1ccc(C(=O)NCCCSc2ccncc2)cc1`: 110 to 111 °C. For `COc1ccc(/C=C/C(=O)C2C(=O)CC(c3ccc(OC)cc3)C([N+](=O)[O-])C2c2cccc([N+](=O)[O-])c2)cc1` (stereo not given) the value was 204 to 206 °C. `COc1ccc2ccc(O)c(C3NCCc4ccccc43)c2c1` (stereo not given) showed a melting point of 126 to 130 °C.

Take `CCCCCCC(Oc1ccc(C2=CCCCCC2)cc1)C(=O)O` (stereo not given): the melting point was 59 to 60 °C.

The molecule `Cc1ccc(Oc2ccccc2C(=O)O)c(NS(=O)(=O)c2cc(C(F)(F)F)cc(C(F)(F)F)c2)c1` yielded a melting point of 165 to 166 °C. `O=C1NC(=O)C(=Cc2ccc(OCCN3C(=O)SC(c4ccccc4)C3=O)cc2)S1` (stereo not given) gave a melting point of 120 °C. For `O=C(N[C@@H](Cc1ccccc1)C(=O)O)OCC(Cl)(Cl)Cl`, the melting point is 126 °C.

In the case of `NS(=O)(=O)c1cc(Cc2ccccc2)c(O)c2ccccc12`, the melting point lay within 167 to 168 °C. For `O=C1CC2c3ccccc3CCN2C2CCCCC12` (stereo not given) the value was 112 to 140 °C; for `O=c1n(C2CCOC2)cc(-c2ccncc2)n1-c1ccc(F)cc1` (stereo not given), 132 to 134 °C. For `c1cn(CCCc2ccc(OCc3coc(-c4cc5c(s4)CCCC5)n3)cc2)cn1` the value was 83 to 84 °C; for `CCOC(=O)C(=Cc1cc(C(C)(C)C)c(O)c(C(C)(C)C)c1)c1cccnc1`, 120 °C. The same measure for `CC(NC(=S)N1CCc2c([nH]c3ccccc23)C1c1ccc2c(c1)OCO2)c1ccccc1` (stereo not given): 117 to 121 °C. `CNc1cc(Cl)ccc1C(C)=O` returned a melting point of 65 to 66 °C. The same measure for `COc1ccc(N2CCN(c3c(C)c(C)c4c(c3C)C(N3CCCCC3)C(C)(C)O4)CC2)cc1` (stereo not given): 146 to 148 °C; for `O=C(NCCCCCCOC(=O)N1CCCCC1)OC1CCN(C(=O)Oc2ccc(Oc3ccccc3)cc2)CC1`: 92 to 93 °C; for `O=C(O)[C@H](Cc1cccs1)NN1C(=O)c2ccccc2C1=O`: 166 to 168 °C. For `CCCOc1ccc(S(=O)(=O)N2CCN(CCOC(=O)C(C)C)CC2)cc1-c1nc2c(CCC)cn(CC)c2c(=O)[nH]1` the value was 88 to 89 °C.

`CC(C)(C)OC(=O)N[C@@H](Cc1cc(F)cc(F)c1)[C@H](O)CO`: the melting point came out at 122 °C. The same measure for `N#Cc1ccccc1C(=O)c1ccccc1O`: 100 °C. For `CC(C)(C)c1cc(-c2nn(CCCCl)c3ncccc23)cc(C(C)(C)C)c1O` the value was 107 to 109 °C; for `CCOC(=O)c1sc(Cl)nc1-c1cccc(C)c1`, 41 to 42 °C. Molecule `O=C(O)CCc1[nH]nc2c1CCC2` returned a melting point of 157 to 159 °C. Consider `CC(=O)Nc1ccc(OCCCCBr)c([N+](=O)[O-])c1`, for which the melting point lay within 192 to 194 °C. For `COc1ccc(Br)c(O)c1O` the value was 122 to 124 °C; for `CCOC(OCC)(c1ccc(F)cc1)C1CCN(CCc2c(C)nc3scc(C)n3c2=O)CC1`, 116 °C; for `CCCC(=O)Oc1ccc(-c2nc(-c3ccc(N(C)C)cc3)c(C)[nH]2)cc1OC`, 62 to 64 °C. Regarding `CC1(C)Cc2c(N)c(Cl)cc(-c3nc(C4CCN(CCCC#N)CC4)no3)c2O1`, the melting point amounted to 151 °C. For `NCCCn1c(-c2ccc(-c3ccccc3)cc2)csc1=Nc1ccccc1` the value was 50 to 54 °C; for `COc1cc(N2CCC(N3CCN(C(=O)OCc4ccccc4)CC3)CC2)ccc1Nc1ncc2ccc(-c3ccccc3OC)n2n1`, 75 to 76 °C. For `NNc1ccc(-c2ccc(Cl)cc2)nn1` the value was 176 to 180 °C; for `CCOP(=S)(OCC)Oc1nsc(SCc2ccccc2)n1`, below 50 °C; for `Cn1cc2c3c(c(F)cc2n1)CCC3=CC#N`, 249 to 252 °C. The same measure for `N#Cc1ccncc1OC1SCC(O)C(O)C1O` (stereo not given): 157 °C.

Consider `CCCCC=Cc1cc2ccccc2[nH]1`, for which the melting point lay within 70 to 72 °C. For `O=C(Nc1ncccn1)Nc1cccc2c1C1CCCCN1C2=O` (stereo not given) the value was 232 °C; for `O=C(Nc1ccccn1)c1cccc(-c2cccc(OCCc3ccc(Cl)cc3Cl)n2)c1`, 113 to 115 °C. The molecule `CNc1cc(-c2ccc(Cl)cc2)nc(C(=O)OC)c1N` had a melting point of 178 to 200 °C. As to `CCc1cccc(CC(=O)O)c1OCCCc1cc(OC(C)C)nn1Cc1ccc(Cl)cc1Cl`, the melting point was in the range of 98 to 99 °C. The same measure for `COCc1nc(N2CCCCC2)ncc1C(=O)OC`: 89 to 92 °C; for `CC1(C)Oc2ccc([N+](=O)[O-])cc2C(n2ccccc2=O)=C1CBr`: 221 °C; for `c1ccc(CN(Cc2ccccc2)OCCCCCCCCON(Cc2ccccc2)Cc2ccccc2)cc1`: 49 to 51 °C. The same measure for `O=C(NCc1ccc(C(F)(F)F)c(N2CCCCC2)c1)Nc1cccc2c1CC(O)CC2` (stereo not given): 163 °C; for `C[Si](C)(C)c1cc(O)c([Si](C)(C)C)cc1O`: 162 °C; for `C=CCNC(=O)Cn1c(-c2ccc(Cl)cc2)nc2cccnc21`: 208 to 209 °C.

As to `COc1cc(NC(=O)c2ccco2)ccc1S(=O)(=O)N1C(=O)C(c2ccccc2Cl)(N(C)C)c2cc(Cl)ccc21` (stereo not given), the melting point worked out at 255 °C. For `Cc1c(F)c(N2CCC(N)C2)cc2c1c(=O)c(C(=O)O)cn2C1CC1` (stereo not given) the value was above 300 °C; for `O=C(NC(=O)c1c(F)cccc1F)Nc1ccc(SC(F)(F)C(F)Cl)cc1F` (stereo not given), 172 to 173 °C. The same measure for `CCC(=O)Oc1cc(OC)cc(OC)c1C(=O)C=Cc1cccn1C`: 108 °C; for `COc1ccc2oc(C(=O)C34CC5CC(CC(C5)C3)C4)cc2c1`: 113 to 115 °C. For `COC(=O)c1ccc(OC)c2c1CCO2` the value was 68 to 78 °C.

Molecule `Cc1cn(-c2ccc(S(N)(=O)=O)c(F)c2)c(-c2ccc(-c3cscn3)cc2)n1` had a melting point of 145 to 147 °C. For `O=C(Nc1ccc(C(=O)O)cc1)OCCCCC1c2ccccc2-c2ccccc21` the value was 146 to 149 °C; for `CC(=S)NC[C@H]1CN(c2ccc3c(c2)C[C@@H](C)N3C=O)C(=O)O1`, 95 to 96 °C. With `CC(Br)C(=O)c1cc(C(N)=O)cs1` (stereo not given), the melting point was in the range of 116 to 117 °C. For `COC1=C(OC)C(=O)C(CCCCCCc2ccc(O)cc2)=C(C)C1=O` the value was 87 to 88 °C; for `O=c1c2ccc(O)cc2oc2c1oc1ccccc12`, above 300 °C.

`CC(=O)N1CCNC(=O)C1c1ccc(F)cc1` (stereo not given) gave a melting point of 139 to 140 °C. The same measure for `CC(C)OC(=O)c1cc(OC(C)C)ccc1[N+](=O)[O-]`: 45 to 50 °C. Molecule `C#CCn1cc(CO)c(C(F)(F)F)c1` displayed a melting point of 45 °C. The same measure for `O=Cc1c(F)cc(Br)cc1Br`: 57 to 58 °C; for `CCOC(=O)OC1=C(c2c(C)cc(C)cc2C)C(=O)N(N(C)C)C12CCN(OC)CC2`: 116 to 119 °C; for `CCOC(=O)CNc1ncccc1NC(=O)c1ccccc1OC`: 111 to 112 °C. The same measure for `COc1ccc(S(=O)(=O)Nc2nc(-c3ccccc3)nn2C)cc1OC`: 279 to 280 °C; for `CN1C(=O)N(Cc2cc(C(F)(F)F)cc(C(F)(F)F)c2)C(=O)C1=Cc1c[nH]c2ccccc12`: 145 to 147 °C. For `CCCCCCCCCCCCS(=O)(=O)N1CCCSC1=C(Br)[N+](=O)[O-]` the value was 70 to 71 °C. Molecule `O=C1Cc2ccc(S(=O)(=O)Cl)cc21` showed a melting point of 80 °C. For `O=Cc1cccc(Cl)c1SCc1ccccc1` the value was 65 to 68 °C; for `Cn1nc(O)cc1C(F)F`, 115 to 119 °C. As for `O=[N+]([O-])c1ccc2c(c1)C(Cc1ccncc1)(Cc1ccncc1)c1ccccc1-2`, the melting point lay within 260 to 264 °C. The same measure for `CCCC(Oc1cncc(Cl)c1)C(=O)O` (stereo not given): 89 to 91 °C; for `CCCCS(=O)(=O)NC1Cc2ccc(-c3ccc(=O)[nH]n3)cc2C1` (stereo not given): 195 to 196 °C. For `CCc1[nH]n(C2CCCC2)c2nc(-c3ccnc(C)c3)nc(=O)c1-2` the value was 258 to 259 °C; for `CCn1c(=O)c2[nH]c(/C=C/c3cc4c(cc3Br)OCO4)nc2n(CC)c1=O`, above 270 °C; for `CCn1cc(C(=O)O)c(=O)c2ccc(N3CCN(C)CC3)cc21`, 215 °C.

As for `CCOC(=O)C(=O)Nc1ccc2nonc2c1NC(=O)C(=O)OCC`, the melting point was determined as 175 °C. For `Nc1cc2c(c(C(=O)O)c1)NCCC2` the value was 207 to 208 °C; for `COc1cc2c(cc1OC)C(C=Cc1ccccc1)=NN(C(C)=O)C(C)C2` (stereo not given), 118 to 120 °C.

Regarding `O=C1c2ccccc2C(=O)N1Cc1ccc(I)cc1`, the melting point was in the range of 138 to 139 °C.

For the molecule `COc1nc(Cl)cnc1N(C(=O)OCC(C)C)S(=O)(=O)c1ccccc1-c1ccc(OC2CCCCO2)cc1` (stereo not given), the melting point fell in the range of 142 to 143 °C. Molecule `COc1cccc(F)c1CCl` returned a melting point of 87 to 89 °C.

Molecule `COC(=O)C(=CN1CCCC1)C(=O)c1cc(F)c(Cl)cc1Cl` registered a melting point of 74 to 76 °C. The same measure for `Cc1ccc2ccccc2c1NC1COC(=O)C1` (stereo not given): 92 to 94 °C; for `Cc1c(C)n(CC2CCCCC2)c2c(OCc3ccc(F)cc3)nncc12`: 108 to 109 °C.

`CCOC(=O)c1c(C)nsc1NC(=O)NC(C)C` came in with a melting point of 175 to 176 °C.

In general, melting point refers to the temperature, or range, at which the solid turns liquid.
